# Target: T1, GCS (Canis lupus familiaris, UniProt A0A8I3MXG6)
# T1 sequence (A0A8I3MXG6 1-394): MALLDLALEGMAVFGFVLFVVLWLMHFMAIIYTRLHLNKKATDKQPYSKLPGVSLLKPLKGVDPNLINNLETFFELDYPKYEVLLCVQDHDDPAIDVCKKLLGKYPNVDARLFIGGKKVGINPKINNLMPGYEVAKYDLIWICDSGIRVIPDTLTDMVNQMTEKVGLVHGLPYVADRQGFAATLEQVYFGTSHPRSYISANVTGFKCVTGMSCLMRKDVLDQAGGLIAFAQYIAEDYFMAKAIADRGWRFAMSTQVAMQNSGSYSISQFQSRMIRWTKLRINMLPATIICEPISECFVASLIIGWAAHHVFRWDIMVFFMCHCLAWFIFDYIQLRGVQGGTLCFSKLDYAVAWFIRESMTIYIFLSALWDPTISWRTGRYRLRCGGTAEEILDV
# Experiment: Assay 1: GCS Enzymatic Assay (MDCK cell lysate, C6-NBD-Ceramide, LC/MS)
# Format: biochemical, canine
# Settings: Table 2; data without asterisk; read-out: IC50 (nM) generated from Assay 1
# Procedure, shortened: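 LC/MS/MS measurement of glucosylceramide and NBD-ceramide after a 1 h, 37 °C reaction with 100 μM UDP-glucose and 10 μM C6-NBD-ceramide gave IC50s or percent inhibition.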
row,Compound,IC50
1,"O=C(N[C@H](CN1CCCC1)[C@H](O)c1cc(Cl)c2c(c1)OCCO2)C(=O)c1ccc(-c2ccc3c(cnn3C3CC3)c2)cc1 [Example 276, N-((1R,2R)-1-(8-chloro-2,3-dihydrobenzo[b][1,4]dioxin-6-yl)-1-hydroxy-3-(pyrrolidin-1-yl)propan-2-yl)-2-(4-(1-cyclopropyl-1H-indazol-5-yl)phenyl)-2-oxoacetamide]",< 50 nM
2,"O=C(N[C@H](CN1CCC1)[C@H](O)c1cc(F)c2c(c1)OCCO2)C(=O)c1ccc(-c2ccc3c(cnn3C3CC3)c2)cc1 [Example 278, N-((1R,2R)-3-(azetidin-1-yl)-1-(8-fluoro-2,3-dihydrobenzo[b][1,4]dioxin-6-yl)-1-hydroxypropan-2-yl)-2-(4-(1-cyclopropyl-1H-indazol-5-yl)phenyl)-2-oxoacetamide]",< 50 nM
3,"Cn1ncc2cc(-c3ccc(C(=O)C(=O)N[C@H](CN4CCC4)[C@H](O)c4ccc(OC5CC5)c(Cl)c4)cc3)ccc21 [Example 279, N-((1R,2R)-3-(azetidin-1-yl)-1-(3-chloro-4-cyclopropoxyphenyl)-1-hydroxypropan-2-yl)-2-(4-(1-methyl-1H-indazol-5-yl)phenyl)-2-oxoacetamide]",< 50 nM
4,"O=C(N[C@H](CN1CCCC1)[C@H](O)c1ccc(OC2CC2)c(Cl)c1)C(=O)c1ccc(-c2ccc3cn(C4CC4)nc3c2)cc1 [Example 284, N-((1R,2R)-1-(3-chloro-4-cyclopropoxyphenyl)-1-hydroxy-3-(pyrrolidin-1-yl)propan-2-yl)-2-(4-(2-cyclopropyl-2H-indazol-6-yl)phenyl)-2-oxoacetamide]",< 50 nM
5,"O=C(N[C@H](CN1CCCC1)[C@H](O)c1cc2c(c(C(F)(F)F)c1)OCCO2)C(=O)c1ccc(-c2ccc(F)cc2)cc1 [Example 286, 2-(4′-fluoro-[1,1′-biphenyl]-4-yl)-N-((1R,2R)-1-hydroxy-3-(pyrrolidin-1-yl)-1-(8-(trifluoromethyl)-2,3-dihydrobenzo[b][1,4]dioxin-6-yl)propan-2-yl)-2-oxoacetamide]",50 to 5000 nM
6,"O=C(N[C@H](CN1CCCC1)[C@H](O)c1ccc(OC2CC2)c(Cl)c1)C(=O)c1ccc2c(cnn2Cc2ccc(F)cc2)c1 [Example 288, N-((1R,2R)-1-(3-chloro-4-cyclopropoxyphenyl)-1-hydroxy-3-(pyrrolidin-1-yl)propan-2-yl)-2-(1-(4-fluorobenzyl)-1H-indazol-5-yl)-2-oxoacetamide]",< 50 nM
7,"O=C(N[C@H](CN1CCCC1)[C@H](O)c1cc(F)c2c(c1)OCCO2)C(=O)c1ccc2c(cnn2Cc2ccc(F)cc2)c1 [Example 289, N-((1R,2R)-1-(8-fluoro-2,3-dihydrobenzo[b][1,4]dioxin-6-yl)-1-hydroxy-3-(pyrrolidin-1-yl)propan-2-yl)-2-(1-(4-fluorobenzyl)-1H-indazol-5-yl)-2-oxoacetamide]",< 50 nM
8,"CC(C)(C)Oc1ccc([C@@H](O)[C@@H](CN2CCCC2)NC(=O)C(=O)c2ccc(-c3ccc(F)cc3)cc2)cc1Cl [Example 291, N-((1R,2R)-1-(4-(tert-butoxy)-3-chlorophenyl)-1-hydroxy-3-(pyrrolidin-1-yl)propan-2-yl)-2-(4′-fluoro-[1,1′-biphenyl]-4-yl)-2-oxoacetamide]",50 to 5000 nM
9,"O=C(N[C@H](CN1CCCC1)[C@H](O)c1ccc(OC2CC2)c(F)c1)C(=O)c1cc2ccc(Cl)cc2s1 [Example 292, 2-(6-chlorobenzo[b]thiophen-2-yl)-N-((1R,2R)-1-(4-cyclopropoxy-3-fluorophenyl)-1-hydroxy-3-(pyrrolidin-1-yl)propan-2-yl)-2-oxoacetamide]",< 50 nM
10,"CC(C)(C)c1ccc(-c2ccc(C(=O)C(=O)N[C@H](CN3CCC3)[C@H](O)c3cc(F)c4c(c3)OCCO4)cc2)cc1 [Example 293, N-((1R,2R)-3-(azetidin-1-yl)-1-(8-fluoro-2,3-dihydrobenzo[b][1,4]dioxin-6-yl)-1-hydroxypropan-2-yl)-2-(4′-(tert-butyl)-[1,1′-biphenyl]-4-yl)-2-oxoacetamide]",< 50 nM
11,"CC(C)(C)c1ccc(-c2ccc(C(=O)C(=O)N[C@H](CN3CCCC3)[C@H](O)c3cc(F)c4c(c3)OCCO4)cc2)cc1 [Example 294, 2-(4′-(tert-butyl)-[1,1′-biphenyl]-4-yl)-N-((1R,2R)-1-(8-fluoro-2,3-dihydrobenzo[b][1,4]dioxin-6-yl)-1-hydroxy-3-(pyrrolidin-1-yl)propan-2-yl)-2-oxoacetamide]",< 50 nM
12,"Cc1cc(F)ccc1-c1ccc(C(=O)C(=O)N[C@H](CN2CCCC2)[C@H](O)c2ccc(OC3CC3)c(Cl)c2)cc1 [Example 295, N-((1R,2R)-1-(3-chloro-4-cyclopropoxyphenyl)-1-hydroxy-3-(pyrrolidin-1-yl)propan-2-yl)-2-(4′-fluoro-2′-methyl-[1,1′-biphenyl]-4-yl)-2-oxoacetamide]",50 to 5000 nM
13,"Cc1cc(C(=O)C(=O)N[C@H](CN2CCCC2)[C@H](O)c2ccc(OC3CC3)c(Cl)c2)ccc1-c1ccc(F)cc1 [Example 298, N-((1R,2R)-1-(3-chloro-4-cyclopropoxyphenyl)-1-hydroxy-3-(pyrrolidin-1-yl)propan-2-yl)-2-(4′-fluoro-2-methyl-[1,1′-biphenyl]-4-yl)-2-oxoacetamide]",< 50 nM
14,"Cc1cc(C(=O)C(=O)N[C@H](CN2CCCC2)[C@H](O)c2cc(F)c3c(c2)OCCO3)ccc1-c1ccc(F)cc1 [Example 299, N-((1R,2R)-1-(8-fluoro-2,3-dihydrobenzo[b][1,4]dioxin-6-yl)-1-hydroxy-3-(pyrrolidin-1-yl)propan-2-yl)-2-(4′-fluoro-2-methyl-[1,1′-biphenyl]-4-yl)-2-oxoacetamide]",< 50 nM

# More lines, now with the values ahead:
row,IC50,Compound
1,< 50 nM,"O=C(N[C@H](CN1CCCC1)[C@H](O)c1ccc(OC2CC2)c(Cl)c1)C(=O)c1ccc(-c2ccc3c(cnn3C3CC3)c2)cc1 [Example 277, N-((1R,2R)-1-(3-chloro-4-cyclopropoxyphenyl)-1-hydroxy-3-(pyrrolidin-1-yl)propan-2-yl)-2-(4-(1-cyclopropyl-1H-indazol-5-yl)phenyl)-2-oxoacetamide]"
2,< 50 nM,"O=C(N[C@H](CN1CCCC1)[C@H](O)c1cc(F)c2c(c1)OCCO2)C(=O)c1ccc(-c2ccc3cnoc3c2)cc1 [Example 280, 2-(4-(benzo[d]isoxazol-6-yl)phenyl)-N-((1R,2R)-1-(8-fluoro-2,3-dihydrobenzo[b][1,4]dioxin-6-yl)-1-hydroxy-3-(pyrrolidin-1-yl)propan-2-yl)-2-oxoacetamide]"
3,< 50 nM,"O=C(N[C@H](CN1CCCC1)[C@H](O)c1ccc(OC2CC2)c(Cl)c1)C(=O)c1ccc(-c2ccc3cnn(C4CC4)c3c2)cc1 [Example 281, N-((1R,2R)-1-(3-chloro-4-cyclopropoxyphenyl)-1-hydroxy-3-(pyrrolidin-1-yl)propan-2-yl)-2-(4-(1-cyclopropyl-1H-indazol-6-yl)phenyl)-2-oxoacetamide]"
4,< 50 nM,"O=C(N[C@H](CN1CCCC1)[C@H](O)c1cc(F)c2c(c1)OCCO2)C(=O)c1ccc(-c2ccc3cnn(C4CC4)c3c2)cc1 [Example 282, 2-(4-(1-cyclopropyl-1H-indazol-6-yl)phenyl)-N-((1R,2R)-1-(8-fluoro-2,3-dihydrobenzo[b][1,4]dioxin-6-yl)-1-hydroxy-3-(pyrrolidin-1-yl)propan-2-yl)-2-oxoacetamide]"
5,< 50 nM,"O=C(N[C@H](CN1CCC1)[C@H](O)c1cc(F)c2c(c1)OCCO2)C(=O)c1ccc(-c2ccc3cnn(C4CC4)c3c2)cc1 [Example 283, N-((1R,2R)-3-(azetidin-1-yl)-1-(8-fluoro-2,3-dihydrobenzo[b][1,4]dioxin-6-yl)-1-hydroxypropan-2-yl)-2-(4-(1-cyclopropyl-1H-indazol-6-yl)phenyl)-2-oxoacetamide]"
6,< 50 nM,"O=C(N[C@H](CN1CCC1)[C@H](O)c1cc(Cl)c2c(c1)OCCO2)C(=O)c1ccc(-c2ccc3c(cnn3C3CC3)c2)cc1 [Example 285, N-((1R,2R)-3-(azetidin-1-yl)-1-(8-chloro-2,3-dihydrobenzo[b][1,4]dioxin-6-yl)-1-hydroxypropan-2-yl)-2-(4-(1-cyclopropyl-1H-indazol-5-yl)phenyl)-2-oxoacetamide]"
7,< 50 nM,"O=C(N[C@H](CN1CCCC1)[C@H](O)c1ccc(OC2CC2)c(Cl)c1)C(=O)c1ccc(-c2ccc(F)cc2)nc1 [Example 287, N-((1R,2R)-1-(3-chloro-4-cyclopropoxyphenyl)-1-hydroxy-3-(pyrrolidin-1-yl)propan-2-yl)-2-(6-(4-fluorophenyl)pyridin-3-yl)-2-oxoacetamide]"
8,< 50 nM,"O=C(N[C@H](CN1CCCC1)[C@H](O)c1cc(F)c2c(c1)OCCO2)C(=O)c1ccc(-c2ccc3oncc3c2)cc1 [Example 290, 2-(4-(benzo[d]isoxazol-5-yl)phenyl)-N-((1R,2R)-1-(8-fluoro-2,3-dihydrobenzo[b][1,4]dioxin-6-yl)-1-hydroxy-3-(pyrrolidin-1-yl)propan-2-yl)-2-oxoacetamide]"
9,< 50 nM,"O=C(N[C@H](CN1CCCC1)[C@H](O)c1ccc(OC2CC2)c(Cl)c1)C(=O)c1ccc(-c2ccc3scnc3c2)cc1 [Example 296, 2-(4-(benzo[d]thiazol-5-yl)phenyl)-N-((1R,2R)-1-(3-chloro-4-cyclopropoxyphenyl)-1-hydroxy-3-(pyrrolidin-1-yl)propan-2-yl)-2-oxoacetamide]"
10,< 50 nM,"O=C(N[C@H](CN1CCCC1)[C@H](O)c1ccc(OC2CC2)c(Cl)c1)C(=O)c1ccc(-c2ccc3ncsc3c2)cc1 [Example 297, 2-(4-(benzo[d]thiazol-6-yl)phenyl)-N-((1R,2R)-1-(3-chloro-4-cyclopropoxyphenyl)-1-hydroxy-3-(pyrrolidin-1-yl)propan-2-yl)-2-oxoacetamide]"

# Reference: US10227323B2, “Glucosylceramide synthase inhibitors for the treatment of diseases” (BIOMARIN PHARMACEUTICAL INC., priority 2013, dated 2019)
